Source: patent US12714688B2, “Margaric acid decreases PIEZ02-mediated pain” (The United States of America, as represented by The …, priority 2020, dated 2026)
“Also recorded” adds a separate entry of the source.

Columns and labels:
rat DRG neurons = test: Current-clamp recording of action potentials elicited by mechanical stimuli in rat DRG neurons; details: 300 μM
Procedure: N2A^Piezo1−/− cells were cultured in Dulbecco's Modified Eagle Medium (DMEM), 5% penicillin streptomycin and 10% fetal bovine serum (FBS); MCC13 cells were cultured in RPMI 1640 (with 2 mM L-glutamine+25 mM HEPES; Sigma), 5% penicillin-streptomycin and 10% FBS and; DRG neurons were cultured in DMEM, 1% penicillin-streptomycin, 1% MEM vitamin solution, 1% L-glutamine, and 10% horse serum. […] The cultured cells were maintained at 37° C., 95% relative humidity, and 5% CO2.
For whole-cell recordings, the bath solution contained 140 mM NaCl, 6 mM KCl, 2 mM CaCl2), 1 mM MgCl2, 10 mM glucose, and 10 mM HEPES (pH 7.4; 300 mOsm). […] Pipettes were made out of borosilicate glass (Sutter Instruments) and were fire-polished before use until a resistance between 3 and 5 MΩ was reached.
During mechanical stimulation, currents were recorded at a constant voltage (−60 mV, voltage-clamp), and voltages were recorded without injecting current (current-clamp). Both variables were sampled at 100 kHz and low-pass filtered at 10 kHz using a MultiClamp™ 700 B amplifier and Clampex (Molecular Devices, LLC). To measure voltage-dependent currents, a square-pulse protocol consisting of 40-ms 20-mV incremental steps starting from −80 mV in 500-ms intervals with P/4 subtraction was used; and to record action potentials evoked by current injection, 40-ms 20-pA incremental steps were injected in 500-ms intervals. […]

[1] = tested on: mechano-activated currents of mouse DRG neurons; test: Whole-cell patch-clamp of mechano-activated currents in cultured mouse DRG neurons; details: 300 μM
Procedure: (§3) Cell culture and electrophysiology: Piezo1 knock-out mouse N2A (N2A^Piezo1−/−) cells were a gift from Dr. Gary R. Lewin, human Merkel cell carcinoma cell line (MCC13 cells; Cell Bank Australia reference number: CBA1338) were obtained from Sigma, and DRG neurons were obtained from sacrificed mice. N2A^Piezo1−/− cells were cultured in Dulbecco's Modified Eagle Medium (DMEM), 5% penicillin streptomycin and 10% fetal bovine serum (FBS); MCC13 cells were cultured in RPMI 1640 (with 2 mM L-glutamine+25 mM HEPES; Sigma), 5% penicillin-streptomycin and 10% FBS and; DRG neurons were cultured in DMEM, 1% penicillin-streptomycin, 1% MEM vitamin solution, 1% L-glutamine, and 10% horse serum. Prior to electrophysiological measurements, N2A^Piezo1−/−, MCC13 and DRG neurons were supplemented overnight (≈18 h) with MA. […] MA was obtained from Nu-Chek Prep, INC. The cultured cells were maintained at 37° C., 95% relative humidity, and 5% CO2.
For whole-cell recordings, the bath solution contained 140 mM NaCl, 6 mM KCl, 2 mM CaCl2), 1 mM MgCl2, 10 mM glucose, and 10 mM HEPES (pH 7.4; 300 mOsm). The pipette solution for voltage-clamp recordings contained: 140 mM CsCl, 5 mM EGTA, 1 mM CaCl2), 1 mM MgCl2, and 10 mM HEPES (pH 7.2); and for current clamp recordings: 140 mM KCl, 6 mM NaCl, 2 mM CaCl2), 1 mM MgCl2, 10 mM glucose, and 10 mM HEPES (pH 7.4; 300 mOsm); MA and bradykinin acetate salt (Sigma) perfused during experiments were dissolved in the bath solution to a final concentration of 300 μM for 2 min, and 1 μM for 5 min respectively; and for long exposure experiments bradykinin was supplemented to the culture medium and added to the cells 18-24 h prior recording. […] Pipettes were made out of borosilicate glass (Sutter Instruments) and were fire-polished before use until a resistance between 3 and 5 MΩ was reached.
During mechanical stimulation, currents were recorded at a constant voltage (−60 mV, voltage-clamp), and voltages were recorded without injecting current (current-clamp). Both variables were sampled at 100 kHz and low-pass filtered at 10 kHz using a MultiClamp™ 700 B amplifier and Clampex (Molecular Devices, LLC). […] In both cases, variables were sampled at 20 kHz and low-pass filtered at 10 kHz. Leak currents before mechanical stimulations were subtracted off-line from the current traces and data were digitally filtered at 2 kHz with ClampFit (Molecular Devices, LLC).
The blunt pipette was mounted on a micromanipulator at an ~45° angle and positioned 3-4 μm above from the cells without indenting them. Displacement measurements were obtained with a square-pulse protocol consisting of 1 μm incremental indentation steps, each lasting 200 ms with a 2-ms ramp in 10-s intervals. […]

PIEZO1 = PIEZO1 (Mus musculus, UniProt E2JF22); test: Whole-cell patch-clamp with mechanical indentation of N2A cells expressing endogenous Piezo1; details: IC50 of inhibition of PIEZO1 currents, mean±SEM
Procedure: as §3
(§4) For whole-cell recordings, the bath solution contained 140 mM NaCl, 6 mM KCl, 2 mM CaCl2), 1 mM MgCl2, 10 mM glucose, and 10 mM HEPES (pH 7.4; 300 mOsm). […]
(§5) During mechanical stimulation, currents were recorded at a constant voltage (−60 mV, voltage-clamp), and voltages were recorded without injecting current (current-clamp). […]
Data analysis: Results were expressed as means±SD (unless otherwise noted). […]

Piezo2 V16 = test: Whole-cell patch-clamp of N2A^Piezo1−/− cells transfected with Piezo2 V16; details: 300 μM; 18 h
Procedure: as §3, §4, §5

mouse PIEZO2 [2] = target: mouse PIEZO2 (Mus musculus, UniProt Q8CD54); test: Whole-cell patch-clamp with mechanical indentation of N2A^Piezo1−/− cells transfected with Piezo2 variant 2 (V2); details: for IC50: IC50 of inhibition of PIEZO2 currents, mean±SEM
Procedure: as §3
(§6) For whole-cell recordings, the bath solution contained 140 mM NaCl, 6 mM KCl, 2 mM CaCl2), 1 mM MgCl2, 10 mM glucose, and 10 mM HEPES (pH 7.4; 300 mOsm). The pipette solution for voltage-clamp recordings contained: 140 mM CsCl, 5 mM EGTA, 1 mM CaCl2), 1 mM MgCl2, and 10 mM HEPES (pH 7.2); and for current clamp recordings: 140 mM KCl, 6 mM NaCl, 2 mM CaCl2), 1 mM MgCl2, 10 mM glucose, and 10 mM HEPES (pH 7.4; 300 mOsm); MA and bradykinin acetate salt (Sigma) perfused during experiments were dissolved in the bath solution to a final concentration of 300 μM for 2 min, and 1 μM for 5 min respectively; and for long exposure experiments bradykinin was supplemented to the culture medium and added to the cells 18-24 h prior recording. For cytoskeleton disruption experiments, N2A^Piezo1−/− were incubated in media supplemented with 1 μM latrunculin A (Cayman Chemicals) for 1 h prior recordings. Pipettes were made out of borosilicate glass (Sutter Instruments) and were fire-polished before use until a resistance between 3 and 5 MΩ was reached.
(§7) During mechanical stimulation, currents were recorded at a constant voltage (−60 mV, voltage-clamp), and voltages were recorded without injecting current (current-clamp). Both variables were sampled at 100 kHz and low-pass filtered at 10 kHz using a MultiClamp™ 700 B amplifier and Clampex (Molecular Devices, LLC). […] Leak currents before mechanical stimulations were subtracted off-line from the current traces and data were digitally filtered at 2 kHz with ClampFit (Molecular Devices, LLC).
(§8) Mechanical stimulation: For indentation assays, N2A^Piezo1−/−, MCC13 DRG neurons, and human iPSC374 derived neurons were mechanically stimulated with a heat-polished blunt glass pipette (3-4 μm) driven by a piezo servo controller (E625, Physik Instrumente). The blunt pipette was mounted on a micromanipulator at an ~45° angle and positioned 3-4 μm above from the cells without indenting them. Displacement measurements were obtained with a square-pulse protocol consisting of 1 μm incremental indentation steps, each lasting 200 ms with a 2-ms ramp in 10-s intervals. The threshold of mechano-activated currents for each experiment was defined as the indentation step that evoked the first current deflection from the baseline.

mouse PIEZO2 [3] = test: as above; details: from IC50 values
Procedure: as §3, §6, §7, §8

[4] = tested on: mechano-activated currents of rat DRG neurons; test: Whole-cell patch-clamp of mechano-activated currents in rat DRG neurons; details: 300 μM for 18 h
human PIEZO2 = human PIEZO2 (Homo sapiens, UniProt Q9H5I5); test: Whole-cell patch-clamp of N2A^Piezo1−/− cells transfected with human Piezo2; details: 300 μM; 18 h
Procedure: as §3, §4, §5

[5] = tested on: PIEZO2-PIEZO1 beam chimera; test: Whole-cell patch-clamp of N2A^Piezo1−/− cells transfected with Piezo2-Piezo1 beam chimera
Procedure: as §3
(§9) For whole-cell recordings, the bath solution contained 140 mM NaCl, 6 mM KCl, 2 mM CaCl2), 1 mM MgCl2, 10 mM glucose, and 10 mM HEPES (pH 7.4; 300 mOsm). The pipette solution for voltage-clamp recordings contained: 140 mM CsCl, 5 mM EGTA, 1 mM CaCl2), 1 mM MgCl2, and 10 mM HEPES (pH 7.2); and for current clamp recordings: 140 mM KCl, 6 mM NaCl, 2 mM CaCl2), 1 mM MgCl2, 10 mM glucose, and 10 mM HEPES (pH 7.4; 300 mOsm); MA and bradykinin acetate salt (Sigma) perfused during experiments were dissolved in the bath solution to a final concentration of 300 μM for 2 min, and 1 μM for 5 min respectively; and for long exposure experiments bradykinin was supplemented to the culture medium and added to the cells 18-24 h prior recording. For cytoskeleton disruption experiments, N2A^Piezo1−/− were incubated in media supplemented with 1 μM latrunculin A (Cayman Chemicals) for 1 h prior recordings. […]
as §5

mice [6] = test: Hargreaves radiant heat test after daily hind paw injection; type: in vivo, mouse; details: MA 5 mM injected daily into hind paw for 7 days
Procedure: (§1) Mice behavior: MA solution: MA was prepared in sterile Dulbecco's phosphate buffered saline, with 70 g/L fatty acid free bovine serum albumin (BSA; Sigma), and MA to a final concentration of 5 mM. The solution was filtered to avoid undissolved materials.
(§2) Subjects: For the experiment 8-12 weeks old male and female C57B16/J mice (N=12; control n=6; male=3, female=3) MA (n=6; male=3, female=3) per experiment were used. Mice were housed under a 12 hr light dark cycle and granted access to food and water ad libitum.
Treatment: Animals were put in two groups (control and MA) and given injections in the plantar of the left hind paw for 7 days prior behavioral assessment. Injections were given as follows: Mouse is restrained by their tail, foot, and over shoulders scruff. The compound is delivered using a 3/10 cc insulin syringe into the plantar surface of the back foot of each mouse. The beveled needle is inserted at a 35-40° angle and 20-50 μl of the compound is injected subcutaneously. The needle is held in place for several seconds before being removed and the animal is returned to its home cage. […]
Thermal threshold (Hargreaves test): Animals were placed in small enclosures over a glass plate heated to 32° C. […] The latency for each rodent to withdraw the paw is recorded with three stimulus presentations administered per paw. […]

Piezo2 V14 = test: Whole-cell patch-clamp of N2A^Piezo1−/− cells transfected with Piezo2 V14; details: 300 μM; 18 h
Procedure: as §3, §4, §5

mice [7] = test: Von Frey test, repeated injury model (daily hind paw injection); type: in vivo, mouse
Procedure: as §1, §2
Injections were given as follows: Mouse is restrained by their tail, foot, and over shoulders scruff. The compound is delivered using a 3/10 cc insulin syringe into the plantar surface of the back foot of each mouse. The beveled needle is inserted at a 35-40° angle and 20-50 μl of the compound is injected subcutaneously. […]
Mechanical threshold (Von Frey test): Punctate mechanical allodynia was measured using Von Frey monofilaments (Stoelting, Inc.) in varying grams of force (0.008-1 g). Animals were placed in small enclosures over a wire mesh and the plantar of the hind paw was poked with a filament and responses were recorded. Withdrawal responses were recorded when the animal lifted, shook, or licked the paw in response to stimulus presentation. […]

[8] = target: endogenous PIEZO2 currents in MCC13 (Homo sapiens, UniProt Q9H5I5); test: Whole-cell patch-clamp of mechanically stimulated MCC13 cells; details: 300 μM
Procedure: as §3, §9, §5

Sequence of mouse PIEZO2 (Mus musculus, UniProt Q8CD54) (Q8CD54 whole entry): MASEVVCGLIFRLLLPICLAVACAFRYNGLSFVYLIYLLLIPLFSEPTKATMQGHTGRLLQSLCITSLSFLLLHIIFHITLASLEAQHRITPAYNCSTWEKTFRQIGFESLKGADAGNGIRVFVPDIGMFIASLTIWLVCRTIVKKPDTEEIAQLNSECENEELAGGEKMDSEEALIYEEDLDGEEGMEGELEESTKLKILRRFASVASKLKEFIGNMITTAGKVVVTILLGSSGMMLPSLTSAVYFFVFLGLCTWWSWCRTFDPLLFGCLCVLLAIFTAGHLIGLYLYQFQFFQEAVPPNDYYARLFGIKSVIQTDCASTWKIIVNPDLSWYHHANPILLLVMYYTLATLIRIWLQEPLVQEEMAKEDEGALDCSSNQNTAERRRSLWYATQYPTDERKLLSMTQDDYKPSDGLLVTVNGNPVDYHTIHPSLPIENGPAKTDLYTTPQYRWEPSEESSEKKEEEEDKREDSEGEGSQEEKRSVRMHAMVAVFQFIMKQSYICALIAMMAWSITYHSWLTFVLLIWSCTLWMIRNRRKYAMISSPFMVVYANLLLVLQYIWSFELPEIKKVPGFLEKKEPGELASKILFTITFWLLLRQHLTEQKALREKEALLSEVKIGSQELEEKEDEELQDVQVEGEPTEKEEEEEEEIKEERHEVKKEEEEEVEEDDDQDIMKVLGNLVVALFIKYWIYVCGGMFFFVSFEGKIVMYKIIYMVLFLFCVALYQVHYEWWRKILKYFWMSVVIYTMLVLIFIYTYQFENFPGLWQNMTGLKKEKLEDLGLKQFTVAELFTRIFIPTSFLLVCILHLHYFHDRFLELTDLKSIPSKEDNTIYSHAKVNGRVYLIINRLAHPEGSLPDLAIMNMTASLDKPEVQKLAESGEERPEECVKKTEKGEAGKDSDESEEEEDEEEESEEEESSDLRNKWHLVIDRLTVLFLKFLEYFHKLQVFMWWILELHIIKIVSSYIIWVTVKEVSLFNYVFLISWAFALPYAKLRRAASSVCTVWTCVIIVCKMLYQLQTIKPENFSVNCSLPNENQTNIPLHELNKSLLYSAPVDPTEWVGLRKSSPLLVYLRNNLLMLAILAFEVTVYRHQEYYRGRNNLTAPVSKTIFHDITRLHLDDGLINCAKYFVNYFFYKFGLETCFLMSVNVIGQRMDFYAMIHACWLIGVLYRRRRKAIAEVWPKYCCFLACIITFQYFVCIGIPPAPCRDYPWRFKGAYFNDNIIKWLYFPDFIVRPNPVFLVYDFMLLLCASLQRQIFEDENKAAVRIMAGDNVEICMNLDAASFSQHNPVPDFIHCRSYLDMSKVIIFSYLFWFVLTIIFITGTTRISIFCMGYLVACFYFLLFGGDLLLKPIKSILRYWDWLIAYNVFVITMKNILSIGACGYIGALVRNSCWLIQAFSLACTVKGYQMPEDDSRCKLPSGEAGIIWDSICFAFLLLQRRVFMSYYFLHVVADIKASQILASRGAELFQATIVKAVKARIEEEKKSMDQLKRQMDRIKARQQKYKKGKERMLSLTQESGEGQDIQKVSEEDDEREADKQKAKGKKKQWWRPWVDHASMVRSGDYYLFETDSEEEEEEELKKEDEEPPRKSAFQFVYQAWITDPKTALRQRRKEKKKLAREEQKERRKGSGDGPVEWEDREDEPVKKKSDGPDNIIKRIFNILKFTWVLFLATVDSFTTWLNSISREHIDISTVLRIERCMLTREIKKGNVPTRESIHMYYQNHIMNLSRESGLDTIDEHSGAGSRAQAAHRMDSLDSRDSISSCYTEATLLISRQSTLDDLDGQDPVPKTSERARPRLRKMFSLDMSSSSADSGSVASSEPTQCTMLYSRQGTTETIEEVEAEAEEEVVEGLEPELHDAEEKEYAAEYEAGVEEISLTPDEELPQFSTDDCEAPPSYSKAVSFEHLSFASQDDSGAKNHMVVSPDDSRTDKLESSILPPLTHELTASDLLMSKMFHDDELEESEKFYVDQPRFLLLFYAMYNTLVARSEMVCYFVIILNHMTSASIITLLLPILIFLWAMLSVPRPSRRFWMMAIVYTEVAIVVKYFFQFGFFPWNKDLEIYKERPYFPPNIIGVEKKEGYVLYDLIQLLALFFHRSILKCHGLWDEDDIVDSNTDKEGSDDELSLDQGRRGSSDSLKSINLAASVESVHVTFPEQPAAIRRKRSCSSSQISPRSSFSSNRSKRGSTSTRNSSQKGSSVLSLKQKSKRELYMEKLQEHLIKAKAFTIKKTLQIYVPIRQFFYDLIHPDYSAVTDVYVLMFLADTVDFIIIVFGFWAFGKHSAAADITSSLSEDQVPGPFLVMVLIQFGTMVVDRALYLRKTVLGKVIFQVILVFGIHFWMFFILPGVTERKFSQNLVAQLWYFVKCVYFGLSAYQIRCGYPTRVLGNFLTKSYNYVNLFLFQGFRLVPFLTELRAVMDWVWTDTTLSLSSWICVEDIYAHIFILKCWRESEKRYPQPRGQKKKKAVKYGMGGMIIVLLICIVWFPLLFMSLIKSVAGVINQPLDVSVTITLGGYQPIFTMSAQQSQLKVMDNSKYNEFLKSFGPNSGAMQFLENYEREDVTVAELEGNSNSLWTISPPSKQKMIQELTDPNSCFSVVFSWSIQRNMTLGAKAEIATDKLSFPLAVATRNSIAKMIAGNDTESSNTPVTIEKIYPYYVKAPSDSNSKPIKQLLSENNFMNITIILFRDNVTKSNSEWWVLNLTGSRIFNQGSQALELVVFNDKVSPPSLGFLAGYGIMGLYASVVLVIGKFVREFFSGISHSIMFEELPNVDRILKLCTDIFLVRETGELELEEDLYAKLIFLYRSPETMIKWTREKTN

Structure (SMILES): CCCCCCCCCCCCCCCCC(=O)O [MA, heptadecanoic acid]
- action potential firing elicited by mechanical stimuli (rat DRG neurons): reduces neuronal action potential firing elicited by mechanical stimuli
- effect on displacement threshold [1]: increasing the displacement threshold
- effect on mechano-evoked currents ([1]; rapidly, intermediate and slowly inactivating currents): inhibit all mechanosensitive currents; also recorded: decreases mechano-activated currents; also recorded: decreased the current magnitude of all DRG neurons mechano-evoked currents
- IC50 (PIEZO1; MA 1-300 μM 18 h): 28.3 ± 3.4 µM
- IC50 (PIEZO1; latrunculin A-treated cells, MA 1-300 μM 18 h plus latrunculin A): 25.6 µM
- effect on activity of Piezo2 V16 (Piezo2 V16): inhibited the activity
- effect on PIEZO2 inactivation (mouse PIEZO2 [2]; 50 μM each day for 4 days): without altering PIEZO2 inactivation
- effect on displacement threshold (mouse PIEZO2 [2]; 50 μM each day for 4 days): increases the displacement threshold
- decrease of PIEZO2 currents (mouse PIEZO2 [2]; 50 μM each day over four days): 65%
- effect on PIEZO2 currents (mouse PIEZO2 [2]; 1-600 μM overnight): inhibits heterologously-expressed mouse PIEZO2 currents; also recorded: inhibits PIEZO2 currents in a concentration-dependent manner
- IC50 (mouse PIEZO2 [2]; MA 1-600 μM overnight (18 h), normalized current densities at maximum displacement, Boltzmann fit): 191 ± 14.7 µM
- IC50 (mouse PIEZO2 [2]; latrunculin A-treated cells, MA 1-600 μM 18 h plus latrunculin A 1 μM for 1 h): 75.4 ± 13.3 µM
- MA concentration required to decrease PIEZO2 currents (mouse PIEZO2 [2]; overnight supplementation): higher than 100 μM
- effect on time constant of inactivation (mouse PIEZO2 [2]; overnight supplementation): without affecting the time constant of inactivation
- increase of displacement threshold required to elicit PIEZO2 currents vs control cells (mouse PIEZO2 [2]; overnight supplementation): three fold
- times more MA needed to inhibit PIEZO2 than PIEZO1 (mouse PIEZO2 [3]): ~ 7 times
- effect on mechano-activated currents [4]: decreases mechano-activated currents in rat DRG neurons; also recorded: inhibit all mechanosensitive currents
- mechano-currents of human PIEZO2 (human PIEZO2): confirmed these results
- sensitivity of chimera to MA inhibition ([5]; 100 μM overnight, compared with PIEZO2): much more sensitive to MA inhibition
- mechanical stimulus needed to open chimera ([5]; MA 100 μM overnight): requires a higher mechanical stimulus to open
- thermal withdrawal latencies / hyper-responsiveness to heat (mice [6]): did not affect the ability of mice to sense thermal stimuli; also recorded: has no effect on this hyper-responsiveness to heat; also recorded: had no effect on thermal withdrawal latencies
- effect on activity of Piezo2 V14 (Piezo2 V14): inhibited the activity
- hypersensitivity to punctate touch (tactile allodynia) (mice [7]; MA 5 mM injected daily into hind paw for 7 days): ameliorates hypersensitivity to touch after injury; also recorded: selectively decreases tactile allodynia; also recorded: protects against tactile allodynia; also recorded: do not develop; also recorded: failed to develop this type of heightened withdrawal response
- baseline touch responses (mice [7]; acute sub-dermal injection): had no effect on baseline touch responses
- effect on displacement threshold [8]: increasing the displacement threshold
- effect on mechano-activated (endogenous PIEZO2) currents [8]: decreases mechano-activated currents; also recorded: decreases endogenous PIEZO2 currents
